Measured values from US20250188110A1, “SPECIFIC SMALL MOLECULE INHIBITORS THAT BLOCK KMT9 METHYLTRANSFERASE ACTIVITY AND FUNCTION” (ALBERT-LUDWIGS-UNIVERSITÄT FREIBURG, priority 2021, published 2025).

Columns and labels:
KMT9 [1] = target: T1, KMT9 (Homo sapiens, UniProt Q9Y5N5); experiment: KMT9 thermal shift assay (SyproOrange); format: binding; details: ΔTm; 500 µM compound, 2 μM KMT9, 5X SO; read-out: Thermal shift
T1 sequence (Q9Y5N5 1-214): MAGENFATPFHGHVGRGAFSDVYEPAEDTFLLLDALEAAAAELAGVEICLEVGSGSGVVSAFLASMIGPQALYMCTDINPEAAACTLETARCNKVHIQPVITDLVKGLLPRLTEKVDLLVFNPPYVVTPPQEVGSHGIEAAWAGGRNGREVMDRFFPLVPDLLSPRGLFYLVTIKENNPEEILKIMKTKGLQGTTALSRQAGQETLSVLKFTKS
T1 sequence (Q9UI30 1-120 isoform Q9UI30-2 partner): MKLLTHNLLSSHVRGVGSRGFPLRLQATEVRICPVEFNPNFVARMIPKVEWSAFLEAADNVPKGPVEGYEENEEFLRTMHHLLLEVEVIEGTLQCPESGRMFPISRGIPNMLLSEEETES
Procedure, shortened: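 ΔTm versus DMSO-only control is reported in bins (>20 K, 15–20 K, 10–15 K, ≤10 K), using Tm from Boltzmann sigmoidal fits of SyproOrange melt curves. KMT9 with compound in pH 8.5 BTP buffer containing MgCl2 and DTT was preincubated at 25° C, then ramped 1° C per 15 s up to 95° C.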

KMT9 [2] = target: T1, KMT9; experiment: Microscale thermophoresis (MST) KMT9 binding; details: microscale thermophoresis, His-tag labelled KMT9 (20 nM); read-out: MST
Procedure, shortened: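 Kd from microscale thermophoresis: compound series against 20 nM His-KMT9 labelled via RED-Tris-NTA, buffer 25 mM HEPES (pH 7.5)/100 mM NaCl/1 mM DTT/0.05% Tween, 40% MST power, 100% LED. Reported as classes: A ≤10 nM, B >10–100 nM, C >100–1000 nM, D >1000 nM.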

KMT9 [3] = target: T1, KMT9; experiment: KMT9 methyltransferase inhibition assay, 3H-SAM scintillation (entries 1-154); format: biochemical; details: entries 1-154: 3H-SAM assay, 25 nM KMT9, 5 μM ETF1
Procedure, shortened: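 Tritium transfer from SAM (0.3 μM 3H-SAM, 0.7 μM unlabelled, final) to 5 μM ETF1 fragment by 25 nM KMT9 was measured after 2 h at 30° C, pH 8.5. Precipitated peptide was collected on filters and scintillation counted; IC50 came from a four-parameter fit of inhibition normalised to controls.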

| SMILES | ΔTm at 500 µM (KMT9 [1]) | Kd (KMT9 [2]) | IC50 (KMT9 [3]) |
| --- | --- | --- | --- |
| CNc1ncnc2c1c(Br)cn2[C@@H]1C[C@H](CNCCCNCCc2cccc(Oc3ccccc3)c2)[C@@H](O)[C@H]1O [458 (330), (1R,2S,3R,5R)-3-(5-Bromo-4-(methylamino)-7H-pyrrolo[2,3-d]pyrimidin-7-yl)-5-(((3-((3-phenoxyphenethyl)amino)propyl)amino)methyl) cyclopentane-1,2-diol] | ≤ 10 °C | > 1000 nM | > 10000 nM |
| CCc1cn([C@@H]2C[C@H](CNCCCNCCc3ccccc3)[C@@H](O)[C@H]2O)c2ncnc(N)c12 [465 (339), (1R,2S,3R,5R)-3-{4-amino-5-ethylpyrrolo[2,3-d]pyrimidin-7-yl}-5-[{{3-[(2-phenylethyl)amino]propyl}amino)methyl]cyclopentane-1,2-diol] | 10 to 15 °C | 100 to 1000 nM | 1000 to 10000 nM |
| Nc1ncnc2c1c(-c1ccccc1)cn2[C@@H]1C[C@H](CNCCCNCCc2ccccc2)[C@@H](O)[C@H]1O [466 (340), (1R,2S,3R,5R)-3-{4-amino-5-phenylpyrrolo[2,3-d]pyrimidin-7-yl}-5-[({3-[(2-phenylethyl)amino]propyl}amino)methyl]cyclopentane-1,2-diol] | 10 to 15 °C | 100 to 1000 nM | 100 to 1000 nM |
| Cc1cn([C@@H]2C[C@H](CNCCCNCCc3ccccc3)[C@@H](O)[C@H]2O)c2ncnc(N)c12 [467 (341), (1R,2S,3R,5R)-3-(4-Amino-5-methyl-7H-pyrrolo[2,3-d]pyrimidin-7-yl)-5-(((3-(phenethylamino)propyl)amino)methyl) cyclopentane-1,2-diol] | 10 to 15 °C | 100 to 1000 nM | 1000 to 10000 nM |
| Nc1ncnc2c1c(C1CC1)cn2[C@@H]1C[C@H](CNCCCNCCc2ccccc2)[C@@H](O)[C@H]1O [468 (342), (1R,2S,3R,5R)-3-(4-Amino-5-cyclopropyl-7H-pyrrolo[2,3-d]pyrimidin-7-yl)-5-(((3-(phenethylamino)propyl)amino)methyl) cyclopentane-1,2-diol] | 15 to 20 °C | 100 to 1000 nM | 1000 to 10000 nM |
| CCC(C)c1cn([C@@H]2C[C@H](CNCCCNCCc3ccccc3)[C@@H](O)[C@H]2O)c2ncnc(N)c12 (stereo partly drawn) [469 (343), (1R,2S,3R,5R)-3-(4-Amino-5-(sec-butyl)-7H-pyrrolo[2,3-d]pyrimidin-7-yl)-5-(((3-(phenethylamino)propyl)amino)methyl) cyclopentane-1,2-diol] | 10 to 15 °C | 100 to 1000 nM | 1000 to 10000 nM |
| Nc1ncnc2c1c(-c1ccncc1)cn2[C@@H]1C[C@H](CNCCCNCCc2ccccc2)[C@@H](O)[C@H]1O [470 (344), (1R,2S,3R,5R)-3-(4-Amino-5-(pyridin-4-yl)-7H-pyrrolo[2,3-d]pyrimidin-7-yl)-5-(((3-(phenethylamino)propyl)amino)methyl) cyclopentane-1,2-diol] | 10 to 15 °C | 100 to 1000 nM | 100 to 1000 nM |
| Nc1ncnc2c1c(-c1ccncn1)cn2[C@@H]1C[C@H](CNCCCNCCc2ccccc2)[C@@H](O)[C@H]1O [471 (345), (1R,2S,3R,5R)-3-(4-Amino-5-(pyrimidin-4-yl)-7H-pyrrolo[2,3-d]pyrimidin-7-yl)-5-(((3-(phenethylamino)propyl)amino)methyl) cyclopentane-1,2-diol] | 15 to 20 °C | 100 to 1000 nM | 100 to 1000 nM |

More lines, now with the values ahead:

| ΔTm at 500 µM (KMT9 [1]) | Kd (KMT9 [2]) | IC50 (KMT9 [3]) | SMILES |
| --- | --- | --- | --- |
| 15 to 20 °C | 10 to 100 nM | 1000 to 10000 nM | CCc1cn([C@@H]2C[C@H](CNCCCNCCc3cccc(Oc4ccccc4)c3)[C@@H](O)[C@H]2O)c2ncnc(N)c12 [459 (332), (1R,2S,3R,5R)-3-(4-Amino-5-ethyl-7H-pyrrolo[2,3-d]pyrimidin-7-yl)-5-(((3-((3-phenoxyphenethyl)amino)propyl)amino)methyl) cyclopentane-1,2-diol] |
| 15 to 20 °C | 10 to 100 nM | 100 to 1000 nM | Nc1ncnc2c1c(C1CC1)cn2[C@@H]1C[C@H](CNCCCNCCc2cccc(Oc3ccccc3)c2)[C@@H](O)[C@H]1O [460 (333), (1R,2S,3R,5R)-3-(4-Amino-5-cyclopropyl-7H-pyrrolo[2,3-d]pyrimidin-7-yl)-5-(((3-((3-phenoxyphenethyl)amino)propyl)amino)methyl) cyclopentane-1,2-diol] |
| 15 to 20 °C | 100 to 1000 nM | 100 to 1000 nM | Nc1ncnc2c1c(-c1ccccc1)cn2[C@@H]1C[C@H](CNCCCNCCc2cccc(Oc3ccccc3)c2)[C@@H](O)[C@H]1O [461 (334), (1R,2S,3R,5R)-3-(4-Amino-5-phenyl-7H-pyrrolo[2,3-d]pyrimidin-7-yl)-5-(((3-((3-phenoxyphenethyl)amino)propyl)amino)methyl) cyclopentane-1,2-diol] |
| 15 to 20 °C | 10 to 100 nM | 1000 to 10000 nM | C=Cc1cn([C@@H]2C[C@H](CNCCCNCCc3cccc(Oc4ccccc4)c3)[C@@H](O)[C@H]2O)c2ncnc(N)c12 [462 (336), (1R,2S,3R,5R)-3-{4-Amino-5-ethenylpyrrolo[2,3-d]pyrimidin-7-yl}-5-{[(3-{[2-(3-phenoxyphenyl)ethyl]amino}propyl)amino]methyl}cyclopentane-1,2-diol] |
| 15 to 20 °C | 10 to 100 nM | > 10000 nM | Nc1ncnc2c1c(Br)cn2[C@@H]1C[C@H](CNCCCNCCc2ccccc2)[C@@H](O)[C@H]1O [463 (337), (1R,2S,3R,5R)-3-(4-Amino-5-bromo-7H-pyrrolo[2,3-d]pyrimidin-7-yl)-5-(((3-(phenethylamino)propyl)amino)methyl) cyclopentane-1,2-diol] |
| 10 to 15 °C | 10 to 100 nM | 1000 to 10000 nM | C=Cc1cn([C@@H]2C[C@H](CNCCCNCCc3ccccc3)[C@@H](O)[C@H]2O)c2ncnc(N)c12 [464 (338), (1R,2S,3R,5R)-3-(4-amino-5-vinyl-7H-pyrrolo[2,3-d]pyrimidin-7-yl)-5-(((3-(phenethylamino)propyl)amino)methyl) cyclopentane-1,2-diol] |
| 15 to 20 °C | 10 to 100 nM | 100 to 1000 nM | Nc1ncnc2c1c(-c1ccn[nH]1)cn2[C@@H]1C[C@H](CNCCCNCCc2ccccc2)[C@@H](O)[C@H]1O [472 (346), (1R,2S,3R,5R)-3-(4-Amino-5-(1H-pyrazol-5-yl)-7H-pyrrolo[2,3-d]pyrimidin-7-yl)-5-(((3-(phenethylamino)propyl)amino)methyl) cyclopentane-1,2-diol] |
| 15 to 20 °C | 10 to 100 nM | 100 to 1000 nM | Nc1ncnc2c1c(-c1ncc[nH]1)cn2[C@@H]1C[C@H](CNCCCNCCc2ccccc2)[C@@H](O)[C@H]1O [473 (347), (1R,2S,3R,5R)-3-(4-Amino-5-(1H-imidazol-2-yl)-7H-pyrrolo[2,3-d]pyrimidin-7-yl)-5-(((3-(phenethylamino)propyl)amino)methyl) cyclopentane-1,2-diol] |
| 15 to 20 °C | 10 to 100 nM | 1000 to 10000 nM | Nc1ncnc2c1c(-c1nccs1)cn2[C@@H]1C[C@H](CNCCCNCCc2ccccc2)[C@@H](O)[C@H]1O [474 (348), (1R,2S,3R,5R)-3-(4-Amino-5-(thiazol-2-yl)-7H-pyrrolo[2,3-d]pyrimidin-7-yl)-5-(((3-(phenethylamino)propyl)amino)methyl) cyclopentane-1,2-diol] |
